For experiment [1], the target named is T1, hP2X3 (Homo sapiens, UniProt P56373).
T1 construct: expressed in transfected cells
T1 sequence (P56373 1-397): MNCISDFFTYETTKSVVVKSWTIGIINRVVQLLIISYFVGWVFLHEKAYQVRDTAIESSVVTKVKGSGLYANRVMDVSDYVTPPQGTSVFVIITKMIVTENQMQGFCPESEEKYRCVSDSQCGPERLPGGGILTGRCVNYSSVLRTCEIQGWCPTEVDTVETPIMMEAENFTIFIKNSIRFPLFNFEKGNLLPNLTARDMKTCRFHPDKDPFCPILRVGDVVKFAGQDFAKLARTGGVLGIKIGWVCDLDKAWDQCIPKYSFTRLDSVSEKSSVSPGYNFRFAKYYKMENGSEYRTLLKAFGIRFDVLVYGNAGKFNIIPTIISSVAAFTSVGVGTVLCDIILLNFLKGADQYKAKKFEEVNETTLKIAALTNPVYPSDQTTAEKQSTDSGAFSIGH
The experiment can be described thus: Calcium uptake assay (Ca influx), P2X antagonist assay, P2X3 homomer. It counts as cell-based. The settings on record: inhibition of agonist-induced calcium influx. The essentials:
(§1)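 Receptors expressed in HEK293 or 1321N1 cells, transiently or stably; heteromer from P2X3 transfected into P2X2-stable line. Fluo-4-type dye in HBSS; compound pre-treatment 1–30 min, then agonist (αβMeATP, ATP or analog) at EC50-90. FLIPR peak minus baseline fluorescence; IC50 by 4-parameter fit, 1 pM–10 μM.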

The target in experiment [2] is T2, hP2X2/3H (Homo sapiens, UniProt P56373+Q9UBL9).
T2 construct: expressed in transfected cells
T2 sequence (P56373 1-397): T1 sequence (P56373 1-397)
T2 sequence (Q9UBL9 1-471): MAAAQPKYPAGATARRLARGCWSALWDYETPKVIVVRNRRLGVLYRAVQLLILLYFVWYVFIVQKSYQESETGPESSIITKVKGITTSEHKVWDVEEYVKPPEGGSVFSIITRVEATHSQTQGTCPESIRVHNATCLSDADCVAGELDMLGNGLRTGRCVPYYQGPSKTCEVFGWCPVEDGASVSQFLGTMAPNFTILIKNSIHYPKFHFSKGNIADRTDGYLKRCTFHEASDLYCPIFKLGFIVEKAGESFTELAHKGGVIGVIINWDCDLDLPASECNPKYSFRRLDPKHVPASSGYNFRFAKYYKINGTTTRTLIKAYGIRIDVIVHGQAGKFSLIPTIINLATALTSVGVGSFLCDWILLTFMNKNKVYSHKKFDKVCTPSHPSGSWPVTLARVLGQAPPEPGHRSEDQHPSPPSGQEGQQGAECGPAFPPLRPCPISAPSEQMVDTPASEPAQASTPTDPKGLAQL
The experiment is described as follows: Calcium uptake assay (Ca influx), P2X antagonist assay, P2X2/3 heteromer. Type of experiment: cell-based. The following applies: inhibition of agonist-induced calcium influx. The gist of the method: as §1

In the case of `Cc1ccc(-c2cc(C(=O)NCc3ccc(C)nc3)cc(-c3cccnc3)c2)nc1` [Compound 20, 3-(5-Methyl-pyridin-2-yl)-N-(6-methyl-pyridin-3-ylmethyl)-5-pyridin-3-yl-benzamide], the IC50 in experiment [1] amounted to 38.5 nM; in experiment [2], 70.5 nM.
On the same counts, the results for `Cc1ccc(-c2cc(C(=O)NCc3cnc(C)nc3)cc(-c3ccc(C)cn3)c2)nc1` [Compound 29, 3,5-Bis-(5-methyl-pyridin-2-yl)-N-(2-methyl-pyrimidin-5-ylmethyl)-benzamide] are 25.8 nM and 219 nM.
The corresponding values for `Cc1ccc(-c2cc(C(=O)NCc3ccc(C)nc3)cc(N3CCN(C)CC3=O)c2)c(C#N)c1` [Compound 67, 2′-Cyano-4′-methyl-5-(4-methyl-2-oxo-piperazin-1-yl)-biphenyl-3-carboxylic acid (6-methyl-pyridin-3-ylmethyl)-amide] are 102 nM and 667 nM.
The corresponding values for `COc1ccc(-c2cc(C(=O)NCc3ccc(C)nc3)cc(-c3ccc(C)cc3)c2)cc1` [Compound 7, 4″-Methoxy-4-methyl-[1,1′;3′,1″]terphenyl-5′-carboxylic acid (6-methyl-pyridin-3-ylmethyl)-amide] are 2460 nM and 9200 nM.
For the molecule `Cc1ccc(-c2cc(C(=O)NCc3cnc(C)nc3)cc(-c3ccc(C)cn3)c2)cc1` [Compound 1, 4′-Methyl-5-(5-methyl-pyridin-2-yl)-biphenyl-3-carboxylic acid (2-methyl-pyrimidin-5-ylmethyl)-amide], the IC50 is 58.8 nM in experiment [1] and 87.6 nM in experiment [2].
The corresponding values for `Cc1ccc(-c2cc(C(=O)NCc3ccc(C)nc3)cc(N3CCNCC3=O)c2)cc1` [Compound 61, 4′-Methyl-5-(2-oxo-piperazin-1-yl)-biphenyl-3-carboxylic acid (6-methyl-pyridin-3-ylmethyl)-amide] are 268 nM and 2350 nM.
As to `Cc1ccc(-c2cc(C(=O)N[C@@H](C)CO)cc(-c3ncccc3C(F)(F)F)c2)nc1` [Compound 81, N-((S)-2-Hydroxy-1-methyl-ethyl)-3-(5-methyl-pyridin-2-yl)-5-(3-trifluoromethyl-pyridin-2-yl)-benzamide], the IC50 was found to be 48.7 nM in experiment [1] and 1220 nM in experiment [2].
The corresponding values for `Cc1ccc(-c2cc(C(=O)N[C@@H](C)CO)cc(-c3cnccc3C#N)c2)c(C#N)c1` [Compound 86, 2′-Cyano-5-(4-cyano-pyridin-3-yl)-4′-methyl-biphenyl-3-carboxylic acid ((S)-2-hydroxy-1-methyl-ethyl)-amide] are 2.2 nM and 28.1 nM.
On the same counts, the results for `Cc1ccc(-c2cc(C(=O)N[C@H](C)CN3CCOCC3)cc(-c3cccc(F)c3F)c2)nc1` [Compound 77, (R)-2′,3′-difluoro-5-(5-methylpyridin-2-yl)-N-(1-morpholinopropan-2-yl)biphenyl-3-carboxamide] are 99.5 nM and 373 nM.
On the same counts, the results for `Cc1ccc(-c2cc(C(=O)NCc3cnc(C)nc3)cc(N3CCCC3=O)c2)cc1` [Compound 50, 4′-Methyl-5-(2-oxo-pyrrolidin-1-yl)-biphenyl-3-carboxylic acid (2-methyl-pyrimidin-5-ylmethyl)-amide] are 25.9 nM and 428 nM.
As for `Cc1ccc(-c2cc(C(=O)NCc3ccc(C)nc3)cc(-c3ccccc3CN(C)C)c2)nc1` [Compound 28, 2′-Dimethylaminomethyl-5-(5-methyl-pyridin-2-yl)-biphenyl-3-carboxylic acid (6-methyl-pyridin-3-ylmethyl)-amide], the IC50 is 66 nM in experiment [1] and 83.5 nM in experiment [2].
As for `Cc1ccc(-c2cc(C(=O)NCc3ccc(C)nc3)cc(-c3cccnc3C#N)c2)nc1` [Compound 42, 3-(2-Cyano-pyridin-3-yl)-5-(5-methyl-pyridin-2-yl)-N-(6-methyl-pyridin-3-ylmethyl)-benzamide], the IC50 in experiment [1] came out at 15.1 nM; in experiment [2] it was 50.5 nM.
With `Cc1ccc(-c2cc(C(=O)N[C@H](C)c3cnc(C)nc3)cc(-c3ccccc3C(=O)N(C)C)c2)nc1` [Compound 54, 5′-(5-Methyl-pyridin-2-yl)-biphenyl-2,3′-dicarboxylic acid 2-dimethylamide 3′-{[(R)-1-(2-methyl-pyrimidin-5-yl)-ethyl]-amide}], the figures for the IC50 in experiment [1] and in experiment [2] were 55.2 nM and 509 nM, respectively.
On the same counts, the results for `Cc1ccc(-c2cc(C(=O)NCc3ccc(C)nc3)cc(-c3ccccn3)c2)nc1` [Compound 32, 3-(5-Methyl-pyridin-2-yl)-N-(6-methyl-pyridin-3-ylmethyl)-5-pyridin-2-yl-benzamide] are 58 nM and 997 nM.
On the same counts, the results for `Cc1ccc(-c2cc(C(=O)NCc3ccc(C)nc3)cc(-c3ccccc3C#N)c2)nc1` [Compound 17, 2′-Cyano-5-(5-methyl-pyridin-2-yl)-biphenyl-3-carboxylic acid (6-methyl-pyridin-3-ylmethyl)-amide] are 21.6 nM and 24.5 nM.
On the same counts, the results for `COc1cccc(-c2cc(C(=O)NCc3ccc(C)nc3)cc(-c3ccc(C)cc3)c2)c1` [Compound 11, 3″-Methoxy-4-methyl-[1,1′;3′,1″]terphenyl-5′-carboxylic acid (6-methyl-pyridin-3-ylmethyl)-amide] are 485 nM and 1060 nM.
Consider `Cc1ccc(-c2cc(C(=O)N[C@H](C)c3cnc(C)nc3)cc(N3CCCC3=O)c2)cc1` [Compound 48, 4′-Methyl-5-(2-oxo-pyrrolidin-1-yl)-biphenyl-3-carboxylic acid [(R)-1-(2-methyl-pyrimidin-5-yl)-ethyl]-amide], for which the values for the IC50 in experiment [1] and in experiment [2] were 16.5 nM and 33.2 nM, respectively.
On the same counts, the results for `Cc1ccc(-c2cc(C(=O)N[C@H](C)CN3CCOCC3)cc(-c3cnccc3C#N)c2)c(C#N)c1` [Compound 87, (R)-2′-Cyano-5-(4-cyanopyridin-3-yl)-4′-methyl-N-(1-morpholinopropan-2-yl)biphenyl-3-carboxamide] are 22.2 nM and 18.6 nM.
The corresponding values for `COc1ccc(-c2cc(C(=O)NCc3ccc(C)nc3)cc(-c3ccc(C)cc3)c2)c(OC)c1` [Compound 9, 2″,4″-Dimethoxy-4-methyl-[1,1′;3′,1″]terphenyl-5′-carboxylic acid (6-methyl-pyridin-3-ylmethyl)-amide] are 484 nM and 415 nM.
Regarding `Cc1ccc(-c2cc(C(=O)NCc3ccc(C)nc3)cc(-c3cnc(N)cn3)c2)nc1` [Compound 41, 3-(5-Amino-pyrazin-2-yl)-5-(5-methyl-pyridin-2-yl)-N-(6-methyl-pyridin-3-ylmethyl)-benzamide], the IC50 in experiment [1] came to 23.8 nM; in experiment [2] it was 169 nM.
On the same counts, the results for `COc1ccccc1-c1cc(C(=O)NCc2ccc(C)nc2)cc(-c2ccc(C)cn2)c1` [Compound 18, 2′-Methoxy-5-(5-methyl-pyridin-2-yl)-biphenyl-3-carboxylic acid (6-methyl-pyridin-3-ylmethyl)-amide] are 53.5 nM and 70.9 nM.
The corresponding values for `Cc1ccc(-c2cc(C(=O)NCc3ccc(C)nc3)cc(-c3cnccc3C#N)c2)nc1` [Compound 46, 3-(4-Cyano-pyridin-3-yl)-5-(5-methyl-pyridin-2-yl)-N-(6-methyl-pyridin-3-ylmethyl)-benzamide] are 7.3 nM and 8.8 nM.
As for `COc1ncc(-c2cc(C(=O)NCc3ccc(C)nc3)cc(-c3ccc(C)cc3)c2)cn1` [Compound 12, 5-(2-Methoxy-pyrimidin-5-yl)-4′-methyl-biphenyl-3-carboxylic acid (6-methyl-pyridin-3-ylmethyl)-amide], the IC50 is 292 nM in experiment [1] and 291 nM in experiment [2].
The corresponding values for `Cc1ccc(-c2cc(C(=O)NCc3ccc(C)nc3)cc(-c3ccncc3)c2)nc1` [Compound 19, 3-(5-Methyl-pyridin-2-yl)-N-(6-methyl-pyridin-3-ylmethyl)-5-pyridin-4-yl-benzamide] are 61.4 nM and 238 nM.

What is called IC50 is the concentration needed to halve the response being measured.

Values taken from US9133122B2, “Amide compounds, compositions and uses thereof” (EVOTEC AG, priority 2008, dated 2015).
